pEC50: −log10 of the molar value.

A word on the pEC50: it is −log10 of the EC50, conventionally taken in molar units.

The nature of one assay: Increased percentage of formazan production in drug treated virus infected cells to equal 50% control drug free uninfected cells on serotype 14.
`CCOC(=O)/C=C/[C@H](CN1CCNC1=O)NC(=O)[C@H](Cc1ccccc1)NC(=O)[C@H](CC(C)C)NC(=O)OCc1ccccc1` [(E)-(R)-4-[(S)-2-((S)-2-Benzyloxycarbonylamino-4-methyl-pentanoylamino)-3-phenyl-propionylamino]-5-(2-oxo-imidazolidin-1-yl)-pent-2-enoic acid ethyl ester] had a negative logarithm of the EC50 (pEC50) of 6.22.

On to `CCOC(=O)/C=C/[C@H](C[C@@H]1CCCNC1=O)NC(=O)[C@H](Cc1ccc(F)cc1)NC(=O)[C@@H](NC(=O)c1cc(C)on1)C(C)C` [(E)-(S)-4-((S)-3-(4-Fluoro-phenyl)-2-{(S)-3-methyl-2-[(5-methyl-isoxazole-3-carbonyl)-amino]-butyrylamino}-propionylamino)-5-((S)-2-oxo-piperidin-3-yl)-pent-2-enoic acid ethyl ester], for which the pEC50 was 7.70.

`CCOC(=O)/C=C/[C@H](C[C@@H]1CCCNC1=O)NC(=O)[C@H](Cc1ccccc1)NC(=O)[C@H](CC(C)C)NC(=O)OCc1ccccc1` [(E)-(S)-4-[(S)-2-((S)-2-Benzyloxycarbonylamino-4-methyl-pentanoylamino)-3-phenyl-propionylamino]-5-((S)-2-oxo-piperidin-3-yl)-pent-2-enoic acid ethyl ester] had a pEC50 of 7.52.

Compound `CCOC(=O)/C=C/[C@H](CCC(=O)N(C)C)NC(=O)[C@H](Cc1ccccc1)NC(=O)[C@H](CC(C)C)NC(=O)OCc1ccccc1` [(E)-(S)-4-[(S)-2-((S)-2-Benzyloxycarbonylamino-4-methyl-pentanoylamino)-3-phenyl-propionylamino]-6-dimethylcarbamoyl-hex-2-enoic acid ethyl ester] showed a pEC50 of 5.40.

As for `CCOC(=O)/C=C/[C@H](CCC(=O)NC)NC(=O)[C@H](Cc1ccccc1)NC(=O)[C@H](CC(C)C)NC(=O)OCc1ccccc1` [(E)-(S)-4-[(S)-2-((S)-2-Benzyloxycarbonylamino-4-methyl-pentanoylamino)-3-phenyl-propionylamino]-6-methylcarbamoyl-hex-2-enoic acid ethyl ester], the pEC50 is 5.25.

Compound `CCOC(=O)/C=C/[C@H](C[C@@H]1CCNC1=O)NC(=O)[C@H](Cc1ccc(F)cc1)NC(=O)[C@@H](NC(=O)c1cc(C)on1)C(C)(C)C` [(E)-(S)-4-[(S)-2-{(S)-3,3-Dimethyl-2-[(5-methyl-isoxazole-3-carbonyl)-amino]-butyrylamino}-3-(4-fluoro-phenyl)-propionylamino]-5-((S)-2-oxo-pyrrolidin-3-yl)-pent-2-enoic acid ethyl ester] showed a pEC50 of 8.00.

For the compound `CCOC(=O)/C=C/[C@H](C[C@@H]1CCCNC1=O)NC(=O)[C@@H](CC(=O)[C@@H](NC(=O)c1cc(C)on1)C(C)C)Cc1ccc(F)cc1` [(E)-(S)-4-{(2R,5S)-2-(4-Fluoro-benzyl)-6-methyl-5-[(5-methyl-isoxazole-3-carbonyl)-amino]-4-oxo-heptanoylamino}-5-((S)-2-oxo-piperidin-3-yl)-pent-2-enoic acid ethyl ester], the pEC50 is 9.00.

`CCOC(=O)/C=C/[C@H](C[C@@H]1CCNC1=O)NC(=O)[C@H](Cc1ccc(F)cc1)NC(=O)[C@@H](NC(=O)c1cc(C)on1)C(C)C` [AG7088 analogue 2a] had a negative logarithm of the EC50 (pEC50) of 8.00.

In turn, `CCOC(=O)/C=C/[C@H](C[C@@H]1CCNC1=O)NC(=O)[C@H](Cc1ccccc1)NC(=O)[C@@H](NC(=O)OCc1ccccc1)C(C)C` [ethyl (2E,4S)-4-[(2S)-2-[(2S)-2-{[(benzyloxy)carbonyl]amino}-3-methylbutanamido]-3-phenylpropanamido]-5-[(3S)-2-oxopyrrolidin-3-yl]pent-2-enoate] gave a negative logarithm of the EC50 (pEC50) of 7.52.

The nature of the next assay: The EC50 was calculated as the concentration of drug that increased the percentage of formazan production in drug treated, virus infected cells to 50% of that produced by drug free uninfected cells on serotype 2.
Turning to `CCOC(=O)/C=C/[C@H](CCC(N)=O)NC(=O)[C@H](Cc1ccccc1)NC(=O)[C@H](CC(C)C)NC(=O)OCc1ccccc1` [(E)-(S)-4-[(S)-2-((S)-2-Benzyloxycarbonylamino-4-methyl-pentanoylamino)-3-phenyl-propionylamino]-6-carbamoyl-hex-2-enoic acid ethyl ester], the pEC50 is 5.80.

The values above are taken from BindingDB's records for doi:10.1021/jm9805384 (Agouron Pharmaceuticals, 1999).
